Data: patent publication US12594255B2, “Lipids with odd number of carbon atoms and their use as pharmaceutical composition or nutritional supplement” (SunRegen Healthcare AG, priority 2016, dated 2026)
Values joined by “and” are separate entries in the source; they are usually repeats but may differ in a detail not shown here. Equal entries are not always repeated. Where two headings read alike, the source gives them in different places.

Columns and labels:
[1] = tested on: mouse primary cortical neurons challenged with Aβ1-42 oligomers (AβO); test: AβO-induced neurotoxicity, 48-h pre-incubation with test item, MTT assay; format: cell-based; details: 48 h pre-incubation, then 1 μM AβO 24 h
Description: Mouse primary cortical neurons were pre-incubated for 48 h with vehicle, 0.05 μM DHA (used as positive control) or different concentrations of Compound C. Then, cortical neurons were treated for 24 h with vehicle (FIG. 1 left) or 1 μM AβO ([…]) and cell viability was determined using the MTT assay (n=3 determinations per condition, 1 independent experiment), Data are represented as % of vehicle control (Mean*SD). […]
(§1) Cortical neurons from embryonic day 16-17 are prepared from C57BL6/J mouse fetuses. In brief, dissociated cortical cells were plated (50.000 cells/well) in 48-well plates pre-coated with 1.5 μg/mL polyornithine (Sigma). Cells were cultured in a chemically defined Dulbecco's modified eagle's/F12 medium free of serum and supplemented with hormones, proteins and salts. Cultures were kept at 35° C. in a humidified 6% CO2 atmosphere. Mouse cortical neurons were exposed for 24 h to 1.0 μM AβO after a 48-h pre-incubation with vehicle or different concentrations of Compound C. The AβO-induced neurotoxicity was evaluated using the MTT assay.
All treatments were done in triplicates in 48-well plates. Cells were incubated with vehicle or 1 μM AβO in the absence or presence of different lipids at the indicated final concentrations) added at 48 hours before ADO. Cells were incubated with AβO for 24 h in a final volume of 140 μL per well.
For positive controls, cells are treated similarly (48 hours before AβO) in the presence of 0.05 μM DHA.
Following AβO-treatment, cell viability was measured using the MTT assay. Briefly, cells were incubated at 35° C. for 1 h with MTT (Sigma, Cat #M2128-10G. Lot #MKBH7489V). For that purpose, 14 μL of 5 mg/mL MITT (solubilized in PBS) were added in each well. After incubation, medium was removed and cells were lyzed with 150 μL DMSO for 10 minutes and protected from light. After complete solubilization of formazan, absorbance at 570 nm was recorded.
as §1, with “cells are” for “cells were”, “Cells are” for “Cells were”, “Cultures are” for “Cultures were”, “of herb B extracts.” for “of Compound C.”, “assay. […]” for “assay.”

[2] = Solubility of compound C in stock solutions; format: physicochemical
[3] = tested on: mouse primary cortical neurons challenged with different types toxins; format: cell-based; details: T3
[4] = tested on: patients suffered from incurable diseases; test: Case reports of patients eating functional food containing SBC003; format: in vivo, human
Text: Compound C (tripentadecanoin) is a natural lipid which can be found in specific herbs, but can also be found in human/animal milk. The patients described in examples II suffered from incurable diseases without any efficient treatment have voluntarily requested the functional food which containing SBC003.

[5] = Cell viability of neurons pre-incubated 48 h with test item only (no AβO), MTT assay; format: cell-based; details: C57BL6/J, mouse, mouse primary cortical neurons, 1 nM compound C only, 48 h pre-incubation
Description: Mouse primary cortical neurons were pre-incubated for 48 h with vehicle, 0.05 μM DHA (used as positive control) or different concentrations of Compound C. Then, cortical neurons were treated for 24 h with vehicle (FIG. 1 left) or 1 μM AβO (FIG. 2 right) and cell viability was determined using the MTT assay (n=3 determinations per condition, 1 independent experiment), Data are represented as % of vehicle control (Mean*SD).
Mouse primary cortical neurons were pre-incubated for 48 h with vehicle, 0.05 μM DHA (used as positive control) or different concentrations of Herb B Extracts. Then, cortical neurons were treated for 24 h with vehicle (FIG. 10 left) or 1 μM AβO (FIG. 11 right) and cell viability was determined using the MTT assay (n=3 determinations per condition, 1 independent experiment), Data are represented as % of vehicle control (Mean±SD).
Cortical neurons from embryonic day 16-17 are prepared from C57BL6/J mouse fetuses. In brief, dissociated cortical cells were plated (50.000 cells/well) in 48-well plates pre-coated with 1.5 μg/mL polyornithine (Sigma). […] The AβO-induced neurotoxicity was evaluated using the MTT assay.
Cortical neurons from embryonic day 16-17 are prepared from C57BL6/J mouse fetuses. […] The AβO-induced neurotoxicity was evaluated using the MTT assay. […]

**Q.** With `CCCCCCCCCCCCCCC(=O)OCC(COC(=O)CCCCCCCCCCCCCC)OC(=O)CCCCCCCCCCCCCC` [Compound C, tripentadecanoin] as the compound, how does the maximal neuroprotective effect ([1]; Compound C 320 nM) read?
**A.** 100%

**Q.** And the EC50 ([1]; Mus musculus, Primary cortical neuron, expected around, read-out: EC50 effect (neuroprotection))?
**A.** ~66 nM

**Q.** What about the viability at 0.32 µM ([1]; Mus musculus, Primary cortical neuron, Compound C 320 nM, read-out: cell viability) of the same compound?
**A.** 112 ± 1.5%

**Q.** And the “solubility in stock solutions” value [2]?
**A.** not fully soluble

**Q.** And the “anti-apoptotic and neuroprotective effects” value ([3]; Aβ1-42 fibrils, 10000 nM)?
**A.** 223%

**Q.** And the “anti-apoptotic and neuroprotective effects” value ([3]; Aβ25-35 fibrils, 10000 nM)?
**A.** 32.1%

**Q.** What about the “anti-apoptotic and neuroprotective effects” value ([3]; alpha-synuclein fibrils, 1000 nM) of the same compound?
**A.** 34.0%

**Q.** What about the “anti-apoptotic and neuroprotective effects” value ([3]; human alpha-synuclein oligomer-induced toxicity, 10000 nM) of the same compound?
**A.** 45.8%

**Q.** And the “anti-apoptotic and neuroprotective effects” value ([3]; human amylin fibrils, 1000 nM)?
**A.** 45.3%

**Q.** And the “anti-apoptotic and neuroprotective effects” value ([3]; human amylin fibrils, 10000 nM)?
**A.** 52.6%

**Q.** And the “anti-apoptotic and neuroprotective effects” value ([3]; human amylin oligomers, 1000 nM)?
**A.** 30.8%

**Q.** And the “anti-apoptotic and neuroprotective effects” value ([3]; human amylin oligomers, 10000 nM)?
**A.** 37.3%

**Q.** What about the “anti-apoptotic and neuroprotective effects” value ([3]; human tau oligomer-induced toxicity, 10000 nM) of the same compound?
**A.** 46.8%

**Q.** What about the “anti-apoptotic and neuroprotective effects” value ([3]; tau fibril-induced toxicity, 10000 nM) of the same compound?
**A.** 23.1%

**Q.** What about the “serum creatinine, average level” value ([4]; female, chronic kidney failure, on treatment, before mean 9.21 mg/dl) of the same compound?
**A.** 8.88 mg/dL

**Q.** And the serum creatinine ([4]; female, chronic kidney failure, single values on treatment, before mean 9.21 mg/dl, listed as SBC003)?
**A.** 8.88 mg/dL and 8.97 mg/dL and 8.55 mg/dL and 9.12 mg/dL

**Q.** What about the “time breathing by themself” value ([4]; person, ALS, ventilator, functional food containing SBC003 about 10 mg/day, about one month, before at the most 30 mins/day) of the same compound?
**A.** about 55 mins/day

**Q.** What about the “Parkinson's symptoms” value ([4]; person, Parkinson's disease, functional food containing SBC003 about 10 mg/day, after about one week) of the same compound?
**A.** abnormal shaking in feet improved

**Q.** And the symptoms of asthma ([4]; person, asthma about 20 years, about 5 mg/time for about few times)?
**A.** greatly improved

**Q.** What about the asthma symptoms ([4]; person, asthma about 29 years, functional food containing SBC003 about 5 mg for one or two time) of the same compound?
**A.** symptoms greatly improved

**Q.** What about the “facial expression / communication” value ([4]; person, cerebellar atrophy, functional food containing SBC003 about 10 mg/day, after about one month) of the same compound?
**A.** started to smile

**Q.** And the “urine volume once per day” value ([4]; person, chronic kidney failure, haemodialysis, no urine before, about 10 to 25 mg/day for about 1 month, after about 2 months)?
**A.** 10 mL

**Q.** What about the “urine total volume per day” value ([4]; person, chronic kidney failure, after increasing to 50-100 mg/day for about 2-3 months) of the same compound?
**A.** about 50 ml per day

**Q.** What about the blood glucose level ([4]; person, chronic kidney failure, on treatment, prior to the treatment 130-180 mg/dl) of the same compound?
**A.** 70 to 105 mg/dL

**Q.** What about the “vision (patient-reported)” value ([4]; person, optic atrophy, blind, functional food containing SBC003 about 7 mg/day for 7 days, after about one month) of the same compound?
**A.** brighter and better vision

**Q.** What about the sitting time ([4]; person, spinal fractures, about 20 mg/day, about 10 days, before only 1 hour/time) of the same compound?
**A.** up to 2 hours

**Q.** And the remaining lumbar pains ([4]; person, spinal fractures, functional food containing SBC003 about 20 mg/day, about 10 days)?
**A.** 40 % of the pains before taking SBC003

**Q.** What about the viability at 48 h, 0.001 µM [5] of the same compound?
**A.** 117 ± 3.7%
